Measured values as given in paper PMC10287695, “Non-covalent inhibitors of thioredoxin glutathione reductase with schistosomicidal activity in vivo” (Nature Communications, 2023).
Where two headings read alike, the source gives them in different places.

Columns and labels:
S. mansoni TGR = target: T1, S. mansoni TGR (Schistosoma mansoni, UniProt Q962Y6); experiment: S. mansoni TGR enzyme inhibition (DTNB reduction); assay type: biochemical
T1 construct: made in house
T1 sequence (Q962Y6 1-598): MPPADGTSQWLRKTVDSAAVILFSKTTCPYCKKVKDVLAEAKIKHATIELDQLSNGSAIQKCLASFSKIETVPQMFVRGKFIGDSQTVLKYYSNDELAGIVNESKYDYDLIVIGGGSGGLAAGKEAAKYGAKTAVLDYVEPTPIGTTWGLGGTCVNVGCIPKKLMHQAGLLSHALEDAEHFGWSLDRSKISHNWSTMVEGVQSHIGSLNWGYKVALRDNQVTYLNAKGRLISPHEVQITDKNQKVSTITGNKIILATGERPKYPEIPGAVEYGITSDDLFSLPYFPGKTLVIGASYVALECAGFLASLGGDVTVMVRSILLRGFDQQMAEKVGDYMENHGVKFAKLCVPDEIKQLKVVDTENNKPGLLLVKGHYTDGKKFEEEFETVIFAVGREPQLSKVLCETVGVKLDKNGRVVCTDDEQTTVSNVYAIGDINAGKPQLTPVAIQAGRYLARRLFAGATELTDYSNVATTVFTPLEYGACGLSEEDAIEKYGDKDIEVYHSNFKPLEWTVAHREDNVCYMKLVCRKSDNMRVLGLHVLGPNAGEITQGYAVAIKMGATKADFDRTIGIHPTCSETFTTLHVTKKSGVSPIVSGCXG

S. mansoni adult worms = experiment: GSH/GSSG ratio in ex vivo adult worms; assay type: cell-based; conditions: for Decrease (%) in GSH/GSSG ratio: adult worms, 3 h exposure to compounds at 50 μM
Method: We assessed GSH/GSSG levels experimentally by treating S. mansoni adult worms with 50 µM of compounds, or respective controls 5 µM Auranofin, 50 µM PZQ or 50 µM MZM and 0.01% DMSO for 3 h. Worm homogenate was prepared by washing three times with PBS to remove residual compounds and ten volumes of ice cold 5% sulfosalicylic acid was added. Worms were manually homogenized on ice using VWR Pellet Mixer Adaptor. The worm suspension was centrifuged at 14000 × g, 4 °C for 10 min and the acid supernatants transferred. An equal volume of ice-cold neutralization buffer (500 mM HEPES, pH 8.0) was added to the acid supernatants.
GSH/GSSG assay was performed by diluting the acid supernatant (5-fold) with ice-cold dilution buffer (250 mM HEPES, pH 7.5). Using white opaque luminescence plate on ice, 25 µl of the diluted worm acid supernatant was added each well in triplicates. Total glutathione lysis reagent and GSSG lysis reagent, which contains alkylating agent N-ethylmaleimide (25 mM) were prepared following manufactures protocol and added to respective wells along with blank for background. Total glutathione lysis reagent or oxidized glutathione lysis reagent (25 µl) was added to respective wells containing worm acid supernatants and the plate was shaken for 5 min. Luciferin generation reagent (LGR) (50 µl) was added to all wells, briefly shaken and incubated at room temperature for 30 min. Luciferin detection reagent (LDR) (100 µl) was added to all wells, briefly shaken and incubated for 15 min at room temperature and the luminescence measured using microplate imager (BioTek Cytation3). GSH/GSSH ratio for DMSO control and compounds were calculated using (Net DMSO total glutathione RFU) – (Net DMSO GSSG RFU)/ (Net DMSO GSSG RFU)/2 and (Net inhibitor total glutathione RFU) – (Net inhibitor GSSG RFU)/ (Net inhibitor GSSG RFU)/2 respectively.

Human TrxR1 = target: T2, Human TrxR1 (Homo sapiens, UniProt Q16881); experiment: Human TrxR1 enzyme inhibition (DTNB reduction); assay type: biochemical; conditions: for inhibition at 15 µM: compound 15 µM; for inhibition at 30 µM: compound 30 µM
T2 construct: made in house
T2 sequence (Q16881 1-499 isoform Q16881-5): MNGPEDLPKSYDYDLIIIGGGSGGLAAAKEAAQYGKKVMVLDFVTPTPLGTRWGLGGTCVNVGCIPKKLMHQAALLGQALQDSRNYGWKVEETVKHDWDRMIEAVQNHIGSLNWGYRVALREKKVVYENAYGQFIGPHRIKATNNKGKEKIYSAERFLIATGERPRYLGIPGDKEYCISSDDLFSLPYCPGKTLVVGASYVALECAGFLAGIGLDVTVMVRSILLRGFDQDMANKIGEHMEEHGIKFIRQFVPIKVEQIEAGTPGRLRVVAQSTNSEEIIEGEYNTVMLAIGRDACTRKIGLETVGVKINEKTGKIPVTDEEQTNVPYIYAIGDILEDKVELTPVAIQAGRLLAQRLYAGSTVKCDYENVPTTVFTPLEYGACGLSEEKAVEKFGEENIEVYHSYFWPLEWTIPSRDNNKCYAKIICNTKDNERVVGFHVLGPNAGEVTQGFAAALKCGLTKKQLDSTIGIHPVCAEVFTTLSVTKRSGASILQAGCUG
Method: Recombinant TGR, human TrxR1, B. malayi (Bm)TrxR and human GR proteins were expressed and purified as described[20],[69],[79]. The codon optimized sequence for P. falciparum (PfTrxR, https://www.ncbi.nlm.nih.gov/protein/CAA60574.1/) with an N-terminal 6-His tag was synthesized and inserted into pET15b (GenScript) and expressed in BL21 (DE3) cells and purified as described for human GR[20]. TGR and TrxR enzyme inhibition assays were performed in triplicate at 25 °C as described[20] in 0.1 M potassium phosphate (pH 7.4), 10 mM EDTA, 100 µM NADPH and 0.01% Tween-20. […] The reaction was started with addition of an equal volume of DTNB (6 mM) and NADPH (100 µM) and the increase in A412 during the first 3 min was recorded. […] The reaction was preincubated for 15 min. Activity was initiated with the addition of 1 mM GSSG and 100 μM NADPH and initial rates of NADPH oxidation were monitored at 340 nm. The reactions were done in triplicate. The IC50 was calculated in GraphPad Prism.

[1] = 15 min preincubation (enzyme + 100 µM NADPH + compound)
[2] = 6 h preincubation (enzyme + 100 µM NADPH + compound), read-out: S. mansoni TGR inhibition (%) at 66.7 µM
[3] = TGR, 15 minutes pre-incubation, compound 15 µM, read-out: % inhibition
[4] = TGR, 15 minutes pre-incubation, compound 30 µM, read-out: % inhibition
[5] = TGR, 6 hours pre-incubation, compound 15 µM, read-out: % inhibition
[6] = TGR, 6 hours pre-incubation, compound 30 µM, read-out: % inhibition
[7] = 1 hr, third data set (r147-159), 0hr 72.45
[8] = 1 hr, third data set (r147-159), 0hr = 100
[9] = 1 hr, third data set, (values given as fraction)
[10] = 3 hr, third data set (r147-159), 0hr 72.45
[11] = 3 hr, third data set (r147-159), 0hr = 100
[12] = 3 hr, third data set, (values given as fraction)
[13] = 15 min preincubation (enzyme + 100 µM NADPH + compound), read-out: Human TrxR1 IC50
[14] = 6 h preincubation, read-out: Human TrxR1 IC50 (µM) or inhibition (%) at 66.7 µM: IC50
[15] = hsTrxR, 15 minutes pre-incubation
[16] = 1 hr, first data set (r117-133), baseline 55.82
[17] = 1 hr, first data set (r117-133), baseline = 100
[18] = 3 hr, first data set (r117-133), baseline 55.82
[19] = 3 hr, first data set (r117-133), baseline = 100

Row | Structure (SMILES) | IC50 (S. mansoni TGR; [1]) [µM] | inhibition at 66.7 µM (S. mansoni TGR; [2]) [%] | inhibition at 15 µM (S. mansoni TGR; [3]) [%] | inhibition at 30 µM (S. mansoni TGR; [4]) [%] | inhibition at 15 µM (S. mansoni TGR; [5]) [%] | inhibition at 30 µM (S. mansoni TGR; [6]) [%] | Reduction (%) in GSH/GSSG ratio (S. mansoni adult worms; 1 hr, third data set) [%] | Ratio GSH/GSSG (S. mansoni adult worms; [7]) | % Ratio GSH/GSSG (S. mansoni adult worms; [8]) [%] | Reduction (%) in GSH/GSSG ratio (S. mansoni adult worms; [9]) [%] | Reduction (%) in GSH/GSSG ratio (S. mansoni adult worms; 3 hr, third data set) [%] | Ratio GSH/GSSG (S. mansoni adult worms; [10]) | % Ratio GSH/GSSG (S. mansoni adult worms; [11]) [%] | Reduction (%) in GSH/GSSG ratio (S. mansoni adult worms; [12]) [%] | Decrease (%) in GSH/GSSG ratio (S. mansoni adult worms) [%] | IC50 (Human TrxR1; [13]) [µM] | IC50 (Human TrxR1; [14]) [µM] | inhibition at 15 µM (Human TrxR1; [15]) [%] | inhibition at 30 µM (Human TrxR1; [15]) [%] | Ratio GSH/GSSG (S. mansoni adult worms; [16]) | other results
1 | Cc1oc(-c2ccc3c(c2)OCO3)nc1CN[C@@H]1C[C@@H]2C[C@H]([C@H]1C)C2(C)C [Compound 1] | > 66.7 | 42.1 | 5.86 | 10 | 7.78 | 21.1 | 50.9919 | 35.51 | 49.0081 | 0.5099 | 78.3034 | 15.72 | 21.6966 | 0.78 | 75 | > 66.7 | 37 ± 3.44 | 6.99 | 11.4 | – | –
2 | CCc1ccccc1-c1nc(CN[C@@H]2C[C@@H]3C[C@H]([C@H]2C)C3(C)C)c(C)o1 [Compound 2] | > 66.7 | 28.7 | 4.35 | 8.85 | 12.1 | 14.6 | – | – | – | – | – | – | – | – | 39 | > 66.7 | 50 ± 13.6 | 2.2 | 4.72 | 34.19 | inhibition at 66.7 µM (S. mansoni TGR; TGR, 15 minutes pre-incubation, compound 66.7 µM, read-out: % inhibition): 12.5%; inhibition at 66.7 µM (S. mansoni TGR; TGR, 6 hours pre-incubation, compound 66.7 µM, read-out: % inhibition): 28.7%; % Ratio GSH/GSSG (S. mansoni adult worms; [17]): 61.2531%; Ratio GSH/GSSG (S. mansoni adult worms; [18]): 28.99; % Ratio GSH/GSSG (S. mansoni adult worms; [19]): 51.9337%; inhibition at 66.7 µM (Human TrxR1; hsTrxR, 15 minutes pre-incubation, compound 66.7 µM, read-out: % inhibition): 11.5%
3 | Cc1oc(-c2ccccc2)nc1CN[C@@H]1C[C@@H]2C[C@H]([C@H]1C)C2(C)C [Compound 3] | > 66.7 | 45 | – | – | – | – | 60.3556 | 28.72 | 39.6444 | 0.60 | 70.1019 | 21.66 | 29.8981 | 0.70 | 62 | > 66.7 | 42.7 ± 3.95 | – | – | 29.86 | % Ratio GSH/GSSG (S. mansoni adult worms; [17]): 53.4928%; Ratio GSH/GSSG (S. mansoni adult worms; [18]): 25.64; % Ratio GSH/GSSG (S. mansoni adult worms; [19]): 45.9343%
4 | C[C@@H]1[C@H]2C[C@@H](C[C@H]1NCc1cc(-c3ccccc3)[nH]n1)C2(C)C [Compound 11] | – | – | – | – | – | – | – | – | – | – | – | – | – | – | – | – | – | – | – | – | S. mansoni TGR IC50 (S. mansoni TGR; [1]): n.i.^e; inhibition at 15 µM (S. mansoni TGR; 15 minutes pre-incubation, 15 µM, read-out: TGR % inhibition): -0.793%; inhibition at 30 µM (S. mansoni TGR; 15 minutes pre-incubation, 30 µM, read-out: TGR % inhibition): 0.411%; inhibition at 66.7 µM (S. mansoni TGR; 15 minutes pre-incubation, 66.7 µM, read-out: TGR % inhibition): 1.81%; inhibition at 15 µM (S. mansoni TGR; 6 hours pre-incubation, 15 µM, read-out: TGR % inhibition): 0.749%; inhibition at 30 µM (S. mansoni TGR; 6 hours pre-incubation, 30 µM, read-out: TGR % inhibition): 1.2%; inhibition at 66.7 µM (S. mansoni TGR; 6 hours pre-incubation, 66.7 µM, read-out: TGR % inhibition): 5.65%; S. mansoni TGR inhibition (%) at 66.7 µM (S. mansoni TGR; 6 h preincubation (enzyme + 100 µM NADPH + compound)): n.i.^e; % Ratio GSH/GSSG (S. mansoni adult worms; adult worms ex vivo, 1 hr): 59.9789%; Reduction (%) in GSH/GSSG ratio (S. mansoni adult worms; adult worms ex vivo, 1 hr, relative to 0hr): 1.477%; Reduction (%) in GSH/GSSG ratio (S. mansoni adult worms; adult worms ex vivo, 1 hr, relative to 0hr, values given as fraction): 0.01477%; % Ratio GSH/GSSG (S. mansoni adult worms; adult worms ex vivo, 3 hr): 59.8685%; Reduction (%) in GSH/GSSG ratio (S. mansoni adult worms; adult worms ex vivo, 3 hr, relative to 0hr): 1.659%; Reduction (%) in GSH/GSSG ratio (S. mansoni adult worms; adult worms ex vivo, 3 hr, relative to 0hr, values given as fraction): 0.01659%
